From patent US6262095A, “Use of tricyclic derivatives of 1,4-dihydro-1,4-dioxo-1H-naphthalene, novel compounds obtained and their application in theraphy” (Laboratoire Innothera, priority 1995, dated 2001)
Where two headings read alike, the source gives them in different places.

How the values were obtained:
[1] = test system: saphenous vein in rabbits; assay: Contractile effect on the rabbit saphenous vein precontracted by a depolarizing physiological solution (K+ 40 mM); type: cell-based; settings: precontracted with 40 mM potassium; for EC50: read-out: ED50 (the source's name)
Experimental: The contractile effects are measured in vitro under static conditions on vascular capacitance or resistance rings of saphenous, femoral, jugular, mesenteric, and caval veins . . . and on femoral, carotid, basilar, or mesenteric arteries, as well as the thoracic or abdominal aorta . . . in rats (Wistar, 200-250 g), rabbits (New Zealand, 2-2.5 kg), guinea pigs (Dunkin Hartley 250-300 g).
The rings are placed in a chamber for isolated organs (25 mL for capacitance vessels and 2.5 mL for resistance vessels according to Mulvany), and maintained under isometric conditions using two rigid threads inserted inside the vessel, avoiding causing damage to the endothelium. The vessels are bathed in a modified Krebs solution (in mM: NaCl=118; KCl=4.6; CaCl2 =2.5; MgSO4 =1.2; KH2 PO4 =1.17; NaHCO3 =25; glucose=11), continuously aerated using a gaseous mixture of 95% O2 and 5% Co2, at a pH=7.4, and regulated by thermostat at 37° C. The rings are adjusted to their optimal point as far as the tension-length relationship is concerned. The tensions developed generate an electrical signal through the intermediary of a force sensor (Wheatstone bridge). […] The pharmacological studies are carried out after a few standardized preliminary contractile stimulations using a depolarizing solution (hyperpotassic type obtained by replacing NaCl with KCl in equimolar quantities), along with rinsings and periods of equilibration in a pure physiological solution. The presence of endothelium is verified by the relaxation induced by increasing the concentration of acetylcholine after the stabilization of a vascular precontraction.
The forces of contraction developed by the vascular rings in response to the different compounds are studied on quiescent or electrically stimulated vessels (5-8 Hz), by a "physiological" depolarizing hyperpotassic solution (KCl: 20, 40 mM), by noradrenaline (increasing concentrations), [and by] serotonin (increasing concentrations).
The contractions are expressed in mg force or as a percentage of the maximum contraction at the time of the depolarization with a "physiological" hyperpotassic solution.
The contractile effect of different compounds on the saphenous vein in rabbits, precontracted by a depolarizing "physiological" solution with a potassium concentration of 40 mM, is given as an illustration; the maximum effect produced by each compound is expressed as a percentage of the maximum contraction induced by depolarizing hyperpotassic solutions and as value of ED50): […]

[2] = test system: capillary resistance of rats; assay: Capillary resistance of rats after oral administration (petechial index); type: in vivo, rat (Wistar); settings: rat
Experimental: The increase in the capillary resistance is evaluated by the modification of the petechial index (negative pressure inducing the extravasation of the erythrocytes), measured by a method derived from the angiosterrometer of Parrot.
The studies are carried out on male Wistar rats with an average weight of 200 g (approximate age six weeks). The bottom area of the back is shorn, then the hair is pulled by means of a paste based on a derivative of thioglycolic acid and calcium hydroxide. After approximately 30 min, the skin is abundantly rinsed and dried.
On the day of the study, the rats are maintained without constraint. A low pressure of 80 mm of mercury is applied. If the petechiae (extravasation of erythrocytes) have not appeared within 15 sec, the low pressure is increased as a countermeasure, keeping the suction cap at the same place.
The minimum low pressure where petechias appear, in mm of mercury, expresses the basal capillary resistance (before any treatment). Two measurements are made for each test at different sites on of the back.
The rats are treated by the oral route. […] All the measurements are done in the blind mode.
A percentage of variation in the capillary resistances of the animals treated compared to their basal capillary resistance is calculated for each compound studied, at each treatment time and compared with the control group (excipient only) or the reference group.

[3] = test system: hyperpermeability induced by zymosan in rats; assay: Inflammatory hyperpermeability induced by zymosan in rats; type: in vivo, rat (Wistar); settings: rat, oral
Experimental: The vascular permeability is studied in vivo by measuring the extravasation of albumin, the quantity of which is determined using an albumin-binding dye (Evans blue).
The hyperpermeability is induced by the intradermal injection of a solution of histamine, bradykinin, or zymosan.
The abdominal walls of the rats (Wistar, 200-230 g) are shorn 1 h before the start of the experiment. The product to be tested is injected by the intraperitoneal route or orally 1-4 h before the sacrifice. The rats are anesthetized with a halothane mixture. They then receive an intradermal injection in their abdomen of 0.10 or 0.15 mL (or for histamine 6.7 or […]) of inflammatory agent and an intravenous injection of 1 mL of 0.5% Evans blue solution in the vein of the penis. These injections are carried out 30 min before the sacrificing.
30 min after these two injections, the rats are sacrificed by cervical dislocation.
At the site of the injection of the inflammatory agent, the skin is cut and placed into glass tubes with a ground[-glass] neck containing 3 mL of fuming hydrochloric acid. […] After allowing the preparation to stand for 30 min, 7 mL of dichloromethane are added. The tubes are periodically agitated for 1 h. The aqueous phase is eliminated by aspiration, and the organic "dichloromethane" phase is filtered. The optical densities are quantified by absorption spectrophotometry at a wavelength of 620 nm, against a blank [control] containing only dichloromethane. The averages of the optical densities of the different lots of treated or control animals are calculated, then a percentage of variation of the values corresponding to the treated [experimental] animals compared to those of the control animals is calculated.

mice = assay: Single oral administration toxicity in mice; type: in vivo, mouse; settings: single oral administration of 500 mg/kg
Source text: Moreover, the compounds of the invention and their possible salts have a very low toxicity.

[4] = Oryctolagus cuniculus, % of maximum contraction induced by hyperpotassic solutions
[5] = 0.1 mg/kg, ** granulometry: 0.6-0.7 mm

Row | Molecule | Emax [1, 4] | EC50 ([1]; Oryctolagus cuniculus) | Zymosan-induced hyperpermeability, effect after 2 h ([3]; 0.1 mg/kg) | Zymosan-induced hyperpermeability, effect after 4 h ([3]; 0.1 mg/kg) | other results
1 | 4,9-Dihydro-4,9-dioxo-2-(2-furyl)-5-hydroxynaphtho-[2,3-d]thiazole or 4,9-Dihydro-4,9-dioxo-2-(2-furyl)-8-hydroxynaphtho-[2,3-d]thiazole [Example 57] | – | – | – | – | Emax (% maximum contraction) ([1]; % of maximum contraction induced by hyperpotassic solutions): 22±3 % maximum contraction; EC50 [1]: 41 nM
2 | Cc1nc2c(n1C)C(=O)c1ccccc1C2=O.O=S(=O)(O)O [Example 1, 4,9-Dihydro-4,9-dioxo-1,2-dimethyl-1H-naphtho[2,3-d]imidazole sulfate] | – | – | – | – | Increase of capillary resistance, effects after 4 h ([2]; 0.1 mg/kg): 37 % of the control; Increase of capillary resistance, effect after 6 h ([2]; 0.1 mg/kg): 35 % of the control; Zymosan-induced hyperpermeability, effect after 2 h ([3]; 5 mg/kg): -28 % of the control; Zymosan-induced hyperpermeability, effect after 4 h ([3]; 5 mg/kg): -28 % of the control
3 | O=C1c2ccccc2C(=O)c2[nH]c(-c3ccccc3F)nc21 [Example 2, 4,9-Dihydro-4,9-dioxo-2-(2-fluorophenyl)-1H-naphtho[2,3-d]imidazole] | – | – | – | – | Increase of capillary resistance, effects after 4 h ([2]; 0.1 mg/kg): 25 % of the control; Increase of capillary resistance, effect after 6 h ([2]; 0.1 mg/kg): 28 % of the control
4 | O=C1c2ccccc2C(=O)c2oc(-c3ccc(F)cc3)nc21 [Example 5, 4,9-Dihydro-4,9-dioxo-2-(4-fluorophenyl)-naphtho[2,3-d]oxazole] | – | – | – | – | toxic effect and mortality (mice): no observable toxic effect and no mortality
5 | Cc1cccc(-c2nc3c(o2)C(=O)c2ccccc2C3=O)c1 [Example 7, 4,9-Dihydro-4,9-dioxo-2-(3-methylphenyl)-naphtho[2,3-d]oxazole] | 17 ± 2% | 36 nM | – | – | –
6 | O=C1c2ccccc2C(=O)c2oc(-c3ccc(Cl)cc3)nc21 [Example 10, 2-(4-Chlorophenyl)-4,9-dihydro-4,9-dioxo-naphtho[2,3-d]oxazole] | – | – | – | – | Increase of capillary resistance, effects after 4 h ([2]; 0.1 mg/kg): 25 % of the control; Increase of capillary resistance, effect after 6 h ([2]; 0.1 mg/kg): 46 % of the control
7 | O=C1c2ccccc2C(=O)c2sc(-c3ccc(F)cc3)nc21 [Example 14, 4,9-Dihydro-4,9-dioxo-2-(4-fluorophenyl)naphtho[2,3-d]thiazole] | – | – | -31 % of the control | -15 % of the control | –
8 | O=C1c2ccccc2C(=O)c2sc(-c3ccc(F)cc3F)nc21 [Example 15, 2-(2,4-Difluorophenyl)-4,9-dihydro-4,9-dioxo-naphtho[2,3-d]thiazole] | – | – | – | – | Increase of capillary resistance, effects after 4 h ([2]; 0.1 mg/kg): 20 % of the control; Increase of capillary resistance, effect after 6 h ([2]; 0.1 mg/kg): 27 % of the control
9 | O=C1c2ccccc2C(=O)c2sc(-c3ccncc3)nc21.O=S(=O)(O)O [Example 17, 4,9-Dihydro-4,9-dioxo-2-(4-pyridyl)-naphtho[2,3-d]thiazole sulfate] | – | – | -15 % of the control | -23 % of the control | –
10 | O=C1c2ccccc2C(=O)c2sc(-c3ccoc3)nc21 [Example 18, 4,9-Dihydro-4,9-dioxo-2-(3-furyl)naphtho[2,3-d]thiazole] | 39 ± 6% | 88 nM | – | – | Increase of capillary resistance, effects after 4 h ([2]; 5 mg/kg): 25 % of the control; Increase of capillary resistance, effect after 6 h ([2]; 5 mg/kg): 28 % of the control
11 | O=C1c2ccccc2C(=O)c2sc(-c3ccc(Cl)o3)nc21 [Example 19, 2-(5-Chloro-furan-2-yl)-4,9-dihydro-4,9-dioxo-naphtho[2,3-d]thiazole] | 20 ± 8% | 75 nM | – | – | –
12 | COc1ccc2c(c1)C(=O)c1sc(-c3ccccc3)nc1C2=O [Example 25, 4,9-Dihydro-4,9-dioxo-7-methoxy-2-phenylnaphtho[2,3-d]thiazole] | – | – | -14 % of the control | -17 % of the control | –
13 | COc1ccc2c(c1)C(=O)c1nc(-c3ccccc3)sc1C2=O [Example 26, 4,9-Dihydro-4,9-dioxo-6-methoxy-2-phenylnaphtho[2,3-d]thiazole] | – | – | -14 % of the control | -24 % of the control | –
14 | O=C1c2ccccc2C(=O)c2sc(-n3cccc3)nc21 [Example 28, 4,9-Dihydro-4,9-dioxo-2-(1-pyrrolyl)-naphtho-[2,3]-thiazole] | 29 ± 2% | 37 nM | – | – | Increase of capillary resistance, effects after 4 h [2, 5]: 10 % of the control; Increase of capillary resistance, effect after 6 h [2, 5]: 13 % of the control; Zymosan-induced hyperpermeability, effect after 2 h ([3]; 5 mg/kg): -29 % of the control; Zymosan-induced hyperpermeability, effect after 4 h ([3]; 5 mg/kg): 0 % of the control
15 | Cc1ccc(-c2nc3c(s2)C(=O)c2ccccc2C3=O)o1 [Example 38, 4,9-Dihydro-4,9-dioxo-2-(5-methyl-2-furyl)naphtho-[2,3-d]thiazole] | 12 ± 1% | 160 nM | -12 % of the control | -3 % of the control | –
16 | COc1ccc2c(c1)C(=O)c1sc(-c3ccco3)nc1C2=O [Example 59, 4,9-Dihydro-4,9-dioxo-2-(2-furyl)-7-methoxynaphtho-[2,3-d]thiazole] | 18 ± 4% | 53 nM | -13 % of the control | +21 % of the control | –
17 | Nc1nc2c(s1)C(=O)c1ccccc1C2=O [Example i, 2-Amino-4,9-dihydro-4,9-dioxonaphtho[2,3-d]thiazole] | 18 ± 1% | 90 nM | – | – | –
18 | O=C1c2ccccc2C(=O)c2sc(-c3ccccn3)nc21 [Example k, 4,9-Dihydro-4,9-dioxo-2-(2-pyridyl)-naphtho[2,3-d]thiazole] | 26 ± 9% | 70 nM | – | – | –
